Measurements published in PMC8397297 (ACS Chemical Neuroscience, 2021).
“Also recorded” adds a separate entry of the source.

Experiments:
mGAT2 = target: T1, mGAT2 (Mus musculus, UniProt P31651); assay: [3H]GABA uptake assay in HEK-293 cells stably expressing mGAT2; format: cell-based; conditions: [3H]GABA uptake; read-out: pIC50 ± SEM mGAT2 (converted)
T1 construct: expressed in transfected cells; host or cells: HEK-293
T1 sequence (P31651 1-614): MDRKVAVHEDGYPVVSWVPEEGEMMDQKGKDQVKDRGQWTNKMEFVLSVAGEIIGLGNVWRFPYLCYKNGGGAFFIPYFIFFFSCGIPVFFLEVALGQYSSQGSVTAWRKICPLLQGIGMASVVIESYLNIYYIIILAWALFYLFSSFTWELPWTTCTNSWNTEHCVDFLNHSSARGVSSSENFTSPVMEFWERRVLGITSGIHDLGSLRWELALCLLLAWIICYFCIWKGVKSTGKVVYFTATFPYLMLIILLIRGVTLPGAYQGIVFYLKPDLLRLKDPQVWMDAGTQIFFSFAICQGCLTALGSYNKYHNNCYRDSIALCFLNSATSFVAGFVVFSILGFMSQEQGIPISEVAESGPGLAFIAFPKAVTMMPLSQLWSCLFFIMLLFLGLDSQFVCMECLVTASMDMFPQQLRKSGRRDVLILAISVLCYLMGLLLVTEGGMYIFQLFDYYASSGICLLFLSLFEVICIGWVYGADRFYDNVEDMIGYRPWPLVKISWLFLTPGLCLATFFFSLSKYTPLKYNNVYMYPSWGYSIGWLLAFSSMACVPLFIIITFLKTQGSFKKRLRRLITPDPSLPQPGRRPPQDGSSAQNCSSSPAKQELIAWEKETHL

mGAT1 = target: T2, mGAT1 (Mus musculus, UniProt P31648); assay: [3H]GABA uptake assay in HEK-293 cells stably expressing mGAT1; format: cell-based; conditions: for IC50: [3H]GABA uptake, read-out: pIC50 ± SEM mGAT1 (converted)
T2 construct: expressed in transfected cells; host or cells: HEK-293

oxaliplatin-treated mice = assay: oxaliplatin-induced peripheral neuropathy, tactile allodynia (von Frey test); format: in vivo, mouse
Protocol: (§1) Before the in vivo tests, the test compounds were suspended in 1% Tween 80 (Baxter, Poland). The compounds were then administered intraperitoneally. […] The test compounds were administered only once daily on days 1 and 7 of oxaliplatin- or paclitaxel-induced neuropathy. In STZ-treated mice, test compounds were administered 21 days after STZ injection. Control mice used in oxaliplatin and paclitaxel NP models were injected with an appropriate amount of vehicle (0.9% saline). Oxaliplatin was purchased from Activate Scientific GmbH (Germany). Paclitaxel and STZ were purchased from Sigma-Aldrich (Poland).
For pain studies, oxaliplatin was dissolved in 5% glucose solution (Polfa Kutno, Poland). The dose of oxaliplatin used to induce peripheral neuropathy (10 mg/kg, intraperitoneal injection) was chosen on the basis of previous research[63],[64] and available literature data.[65]
(§2) The ability of the test compounds to attenuate tactile allodynia caused by oxaliplatin, paclitaxel, and STZ was assessed using the von Frey test. For this purpose, 3 h after oxaliplatin or paclitaxel and 21 days after STZ injection, the predrug paw withdrawal threshold was measured for each mouse. Then, the test compounds were administered, and 1 h later, the postdrug paw withdrawal threshold was collected for each animal. This part of the experiment aimed to establish the effect of treatment on early phase (acute) pain hypersensitivity induced by cytotoxic drugs. Additionally, in the oxaliplatin model and the paclitaxel model, to assess the effect of test compounds on late phase tactile allodynia, 7 days later, measurements of the predrug and postdrug paw withdrawal thresholds were made in a similar manner to the measurements performed during early phase neuropathy. At this stage of the experiment, there was no additional oxaliplatin/paclitaxel administration.
(§3) An electronic von Frey unit (Bioseb, France) was used to assess the mechanical nociceptive threshold (tactile allodynia) in mice. This device has a single flexible filament that applies increasing force (from 0 to 10 g) against the plantar surface of the hind paw of each mouse. In the von Frey test, the paw withdrawal response of the animals automatically turns off the stimulus, and the mechanical pressure that evokes this response is recorded. On the day of the experiment, the mice were placed individually in test compartments with a wire mesh bottom and left there for 1 h of habituation. Subsequently, to obtain baseline values, each mouse was tested 3 times alternately in each hind paw. Then, the test compounds were administered, and 1 h later, 3 additional measurements were taken and averaged to obtain the mean postdrug values for each mouse.[69]

paclitaxel-treated mice [1] = assay: paclitaxel-induced peripheral neuropathy, tactile allodynia (von Frey test); format: in vivo, mouse
Protocol: as §1
(§4) Doses of both paclitaxel and STZ used for the induction of neuropathy were selected based on our previous research.[66],[67] To induce neuropathy, paclitaxel was used at a dose of 18 mg/kg. It was prepared by dissolving in ethanol (100% (v/v); Polskie Odczynniki Chemiczne, Gliwice, Poland) at 10% of the final desired volume and vortexed for 2 min. An equal volume of Cremophor EL (10% of the final volume) was then added, and the mixture was vortexed for the next 10 min. Prior to injection, ice-cold physiological saline (80% of the final volume) was added to make up a final volume and the solution was maintained on ice during dosing.[66] To induce type I diabetes, mice were intraperitoneally injected with STZ (a single injection of STZ, 200 mg/kg) dissolved in 0.1 N citrate buffer. Age-matched control mice received an equal volume of citrate buffer. Blood glucose level was measured 1 day before (referred to as “day 0”) and repeatedly 1, 2, and 3 weeks after STZ injection using a blood glucose monitoring system (Accu-Chek Active, Roche, France). Blood samples for measurement of glucose concentration were obtained from the tail vein of the mice. The animals were considered as diabetic when their blood glucose concentration exceeded 300 mg/dL,[68] and only these mice (diabetic mice) were used in subsequent pain tests.[67]
as §2, §3

STZ-treated mice [2] = assay: diabetic STZ-induced peripheral neuropathy, heat hyperalgesia (hot plate test); format: in vivo, mouse; conditions: i.p.
Protocol: as §1
Doses of both paclitaxel and STZ used for the induction of neuropathy were selected based on our previous research.[66],[67] To induce neuropathy, paclitaxel was used at a dose of 18 mg/kg. It was prepared by dissolving in ethanol (100% (v/v); Polskie Odczynniki Chemiczne, Gliwice, Poland) at 10% of the final desired volume and vortexed for 2 min. […] Blood glucose level was measured 1 day before (referred to as “day 0”) and repeatedly 1, 2, and 3 weeks after STZ injection using a blood glucose monitoring system (Accu-Chek Active, Roche, France). […]
Thermal (heat) nociceptive threshold was assessed in the hot plate test as previously described.[67] […] The time until the animal licked its hind paws or jumped was recorded by means of a stop-watch. […]

paclitaxel-treated mice [3] = assay: paclitaxel-induced peripheral neuropathy, heat nociceptive threshold (hot plate test); format: in vivo, mouse; conditions: for effect on latency to pain reaction (heat), hot plate test: day of paclitaxel administration (paclitaxel-induced hypoalgesia); for effect on thermal nociceptive threshold, hot plate test: seven days after paclitaxel administration, i.p.
Protocol: as §1, §4
Thermal (heat) nociceptive threshold was assessed in the hot plate test as previously described.[67] First, baseline (predrug) latencies to pain reaction were established for each mouse. Then, the mice were treated intraperitoneally with either the test compound or vehicle. Sixty minutes later the animals were placed on the hot plate apparatus again (hot/cold plate, Bioseb, France). This apparatus has an electrically heated surface and is supplied with a temperature-controller that maintains the temperature at 55 °C. The time until the animal licked its hind paws or jumped was recorded by means of a stop-watch. In this assay a cutoff time was established (60 s) to avoid tissue damage, and the mice not responding within 60 s were removed from the apparatus and assigned a score of 60 s.

STZ-treated mice [4] = assay: diabetic STZ-induced peripheral neuropathy, tactile allodynia (von Frey test); format: in vivo, mouse; conditions: 21 days after STZ, i.p., doses 10 and 30 mg/kg
Protocol: as §1
Doses of both paclitaxel and STZ used for the induction of neuropathy were selected based on our previous research.[66],[67] To induce neuropathy, paclitaxel was used at a dose of 18 mg/kg. […] Blood glucose level was measured 1 day before (referred to as “day 0”) and repeatedly 1, 2, and 3 weeks after STZ injection using a blood glucose monitoring system (Accu-Chek Active, Roche, France). […]
The ability of the test compounds to attenuate tactile allodynia caused by oxaliplatin, paclitaxel, and STZ was assessed using the von Frey test. For this purpose, 3 h after oxaliplatin or paclitaxel and 21 days after STZ injection, the predrug paw withdrawal threshold was measured for each mouse. […]

[5] = early (acute) phase of oxaliplatin-induced neuropathy, i.p., 50a and 56a at both doses (10 and 30 mg/kg)
[6] = day 7 after paclitaxel injection, 30 mg/kg i.p., 30 mg/kg
[7] = day 7 after paclitaxel injection, lower dose (10 mg/kg) i.p.
[8] = day of paclitaxel administration, 10 and 30 mg/kg i.p.

| SMILES | IC50 (mGAT2) [µM] | remaining [3H]GABA uptake mGAT1 (mGAT1; in the presence of 100 μM inhibitor) | effect on mechanical nociceptive threshold (tactile allodynia), von Frey test (oxaliplatin-treated mice; [5]) | IC50 (mGAT1) [µM] | effect on mechanical nociceptive threshold, von Frey test (paclitaxel-treated mice [1]; [6]) | effect on mechanical nociceptive threshold, von Frey test (paclitaxel-treated mice [1]; [7]) | effect on mechanical nociceptive threshold, von Frey test (paclitaxel-treated mice [1]; [8]) | effect on heat nociceptive threshold, hot plate test (STZ-treated mice [2]) | effect on latency to pain reaction (heat), hot plate test (paclitaxel-treated mice [3]; 30 mg/kg i.p.) | effect on thermal nociceptive threshold, hot plate test (paclitaxel-treated mice [3]) | effect on mechanical nociceptive threshold (tactile allodynia), von Frey test (STZ-treated mice [4]) | effect on mechanical nociceptive threshold (tactile allodynia), von Frey test (oxaliplatin-treated mice; late phase (7 days after oxaliplatin), 10 mg/kg i.p., 10 mg/kg) | effect on latency to pain reaction (heat), hot plate test (paclitaxel-treated mice [3]; 10 mg/kg i.p.) |
| --- | --- | --- | --- | --- | --- | --- | --- | --- | --- | --- | --- | --- | --- |
| Cc1ccc(CNC(=O)[C@@H](C[C@@H](C)O)N(C)CCC=C2c3ccccc3CCc3ccccc32)cc1 (relative stereo) [Compound 2RS,4RS-39c, 2-((3-(10,11-Dihydro-5H-dibenzo[a,d][7]annulen-5-ylidene)propyl)(methyl)amino)-4-hydroxy-N-(4-methylbenzyl)pentanamide] | 20.4 | 100 μM: 52% | not effective |  |  |  |  |  |  |  |  |  |  |
| CN(CCON=C(c1ccccc1)c1ccccc1)C(CCN)C(=O)NCc1ccccc1Cl (stereo not shown) [Compound 50a, 4-Amino-N-[(2-chlorophenyl)methyl]-2-[(2-{[(diphenylmethylidene)amino]oxy}ethyl)(methyl)amino]butanamide] | 3.72 |  | significantly elevated the pain threshold for mechanical stimulation; also recorded: showed antiallodynic properties | 20 | elevated mechanical nociceptive threshold; also recorded: able to reduce tactile allodynia | not effective | neither 50a nor 56a at doses 10 and 30 mg/kg was able to elevate the mechanical nociceptive threshold | neither 50a nor 56a was effective | reduced latency to pain reaction | did not reveal the effect of paclitaxel and compounds 50a and 56a on the thermal nociceptive threshold | effective only at the dose of 30 mg/kg |  |  |
| CN(CCC=C1c2ccccc2CCc2ccccc21)C(CO)C(=O)NCc1ccccc1 (stereo not shown) [Compound 56a, N-Benzyl-2-((3-(10,11-dihydro-5H-dibenzo[a,d][7]annulen-5-ylidene)propyl)(methyl)amino)-3-hydroxypropanamide] | 27.5 |  | reduced tactile allodynia; also recorded: showed antiallodynic properties | 21.4 | elevated mechanical nociceptive threshold; also recorded: able to reduce tactile allodynia | not effective | neither 50a nor 56a at doses 10 and 30 mg/kg was able to elevate the mechanical nociceptive threshold | neither 50a nor 56a was effective | reduced latency to pain reaction | did not reveal the effect of paclitaxel and compounds 50a and 56a on the thermal nociceptive threshold | effective only at the dose of 30 mg/kg | showed antiallodynic properties in the acute and late phases | reduced latency to pain reaction |
